In the supplement of paper PMC10307832:

Legend:
Experiment in all cases: relative viability (nuclei count vs DMSO), 5 days (fraction); higher = more cells survive
[1] = compound: C[C@@H](C(=O)N[C@@H](C1CCCCC1)C(=O)N2CCC[C@H]2C(=O)N[C@@H]3[C@@H](CC4=CC=CC=C34)OCC#CC#CCO[C@@H]5CC6=CC=CC=C6[C@@H]5NC(=O)[C@@H]7CCCN7C(=O)[C@H](C8CCCCC8)NC(=O)[C@H](C)NC)NC [AZD5582] + Cc1nc(NC(=O)N2CCC[C@H]2C(N)=O)sc1-c1ccnc(C(C)(C)C(F)(F)F)c1 [Alpelisib] (partner 2 µM)
Procedure, shortened: (§1)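 Each reported value is a median over duplicate plates. It expresses relative viability: treated-well nuclei count divided by vehicle-well nuclei count. Lung cancer cell lines in 1536-well plates were dosed by pin tool a day after seeding, alone with one drug or with a fixed anchor-drug dose plus five library-drug doses (not always all listed) in √10 steps, and nuclei were counted after 5 days.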

[2] = compound: C[C@@H](C(=O)N[C@@H](C1CCCCC1)C(=O)N2CCC[C@H]2C(=O)N[C@@H]3[C@@H](CC4=CC=CC=C34)OCC#CC#CCO[C@@H]5CC6=CC=CC=C6[C@@H]5NC(=O)[C@@H]7CCCN7C(=O)[C@H](C8CCCCC8)NC(=O)[C@H](C)NC)NC [AZD5582] + Nc1ncn([C@H]2C[C@H](O)[C@@H](CO)O2)c(=O)n1 [Decitabine] (partner 2 µM)
Procedure, shortened: as §1

[3] = compound: Cn1nnc2c(C(N)=O)ncn2c1=O [Temozolomide] + CS(=O)(=O)CCNCc1ccc(-c2ccc3ncnc(Nc4ccc(OCc5cccc(F)c5)c(Cl)c4)c3c2)o1 [Lapatinib] (partner 2 µM)
Procedure, shortened: as §1

[4] = compound: Cn1nnc2c(C(N)=O)ncn2c1=O [Temozolomide] + Cc1nc(NC(=O)N2CCC[C@H]2C(N)=O)sc1-c1ccnc(C(C)(C)C(F)(F)F)c1 [Alpelisib] (partner 2 µM)
Procedure, shortened: as §1

Row | Cell Line | relative viability ([1]; first compound 0.001581 µM) | relative viability ([1]; first compound 0.005 µM) | relative viability ([1]; first compound 0.01581 µM) | relative viability ([1]; first compound 0.05 µM) | relative viability ([2]; first compound 0.001581 µM) | relative viability ([2]; first compound 0.005 µM) | relative viability ([2]; first compound 0.01581 µM) | relative viability ([2]; first compound 0.05 µM) | relative viability ([3]; first compound 0.2 µM) | relative viability ([3]; first compound 0.6325 µM) | relative viability ([3]; first compound 2 µM) | relative viability ([3]; first compound 6.325 µM) | relative viability ([3]; first compound 20 µM) | relative viability ([4]; first compound 0.2 µM) | relative viability ([4]; first compound 0.6325 µM) | relative viability ([4]; first compound 2 µM) | relative viability ([4]; first compound 6.325 µM) | relative viability ([4]; first compound 20 µM)
1 | NCI-H358 | 0.725 | 1.02 | 0.89 | 1.02 | 0.199 | 0.241 | 0.245 | 0.215 | 0.538 | 0.572 | 0.475 | 0.439 | 0.419 | 0.657 | 0.729 | 0.912 | 0.833 | 0.676
2 | NCI-H460 | 0.401 | 0.445 | 0.536 | 0.621 | 0.424 | 0.491 | 0.466 | 0.577 | 1.23 | 1.03 | 1.12 | 1 | 1.24 | 0.58 | 0.526 | 0.51 | 0.479 | 0.461
3 | NCI-H520 | 0.97 | 0.89 | 0.838 | 1.07 | 0.504 | 0.515 | 0.509 | 0.557 | 0.927 | 0.87 | 1 | 0.903 | 0.993 | 1.01 | 1.12 | 1.05 | 0.893 | 1.01
4 | NCI-H596 | 0.554 | 0.33 | 0.538 | 0.304 | 1.02 | – | 1.06 | 0.39 | 1.3 | 1.11 | 1.26 | 0.929 | 1.2 | 0.582 | 0.494 | 0.567 | 0.48 | 0.482
5 | NCI-H647 | 0.957 | 0.943 | 1.19 | 1.11 | 0.426 | 0.366 | 0.417 | 0.331 | 1.41 | 1.16 | 1.27 | 0.891 | 0.275 | 1.43 | 1.21 | 1.16 | 0.866 | 0.238
6 | NCI-H650 | 1.06 | 0.934 | 0.997 | 0.863 | 0.327 | 0.3 | 0.321 | 0.306 | 1.02 | 0.888 | 0.995 | 1.03 | 1.07 | 1.18 | 1.19 | 1.13 | 1.12 | 1.06
7 | NCI-H661 | 0.592 | 0.524 | 0.557 | 0.521 | 0.525 | 0.571 | 0.573 | 0.556 | – | 0.599 | 0.506 | 0.433 | 0.508 | – | 0.618 | 0.759 | 0.714 | 0.545
8 | NCI-H727 | 0.578 | 0.627 | 0.441 | 0.556 | 0.965 | 0.856 | 0.801 | 0.921 | 0.907 | 0.804 | 0.865 | 0.665 | 0.693 | 0.655 | 0.511 | 0.533 | 0.675 | 0.504
9 | NCI-H838 | 0.89 | 0.97 | 0.907 | 1.18 | 0.451 | 0.41 | 0.476 | 0.396 | 0.998 | 1.03 | 1.17 | 0.945 | 1.25 | 1.1 | 1.06 | 1.1 | 0.968 | 1.02
10 | NCI-H1355 | 0.724 | 0.832 | 0.82 | 0.852 | 0.359 | 0.317 | 0.357 | 0.364 | 1.06 | 1.01 | 0.974 | 1.02 | 0.99 | 0.834 | 0.943 | 0.842 | 0.815 | 0.803
11 | NCI-H1395 | 1.08 | 1.19 | – | 1.39 | 0.694 | 0.743 | – | 0.782 | 1.07 | 1.19 | 1.5 | 0.903 | 0.968 | 1.15 | 1.07 | 1.13 | 1 | 1.06
12 | NCI-H1437 | 0.968 | 0.967 | 0.875 | 1.04 | 0.543 | 0.554 | 0.595 | 0.565 | 0.8 | 0.817 | 0.822 | 0.875 | 0.975 | 1.03 | 0.922 | 0.957 | 0.953 | 1.05
13 | NCI-H1651 | 1.03 | 1.02 | 0.855 | 1.15 | 0.572 | 0.571 | 0.559 | 0.654 | 0.969 | 0.881 | 0.876 | 0.754 | 0.934 | 0.966 | 0.941 | 1.03 | 0.93 | 0.92
14 | NCI-H1666 | 0.851 | 0.833 | 1.08 | 1.03 | 0.658 | 0.73 | 0.626 | 0.704 | 0.626 | 0.706 | 0.486 | 0.495 | 0.536 | 0.925 | 0.951 | 0.808 | 0.586 | 0.499
15 | NCI-H1734 | 0.729 | 0.761 | 0.705 | 0.903 | 0.479 | 0.527 | 0.484 | 0.514 | 1.12 | 1.06 | 1.07 | 0.955 | 1.05 | 0.7 | 0.638 | 0.747 | 0.646 | 0.659
16 | NCI-H1755 | 0.875 | 0.918 | 0.874 | 0.996 | 0.709 | 0.761 | 0.694 | 0.725 | 1.11 | 1.05 | 0.966 | 0.979 | 0.98 | 0.972 | 0.952 | 0.853 | 0.881 | 0.59
17 | NCI-H1792 | 0.616 | 0.738 | 0.651 | 0.939 | 0.503 | 0.622 | 0.526 | 0.672 | 1.06 | 0.973 | 0.895 | 0.899 | 0.861 | 0.535 | 0.749 | 0.677 | 0.651 | 0.791
18 | NCI-H1793 | 0.637 | 0.856 | 0.69 | 0.887 | 0.487 | 0.607 | 0.473 | 0.53 | – | 0.81 | 0.608 | 0.649 | 0.694 | – | 0.714 | 0.881 | 0.716 | 0.585
19 | NCI-H1915 | 1.01 | 1.06 | 1.09 | 1.13 | 0.278 | 0.26 | 0.276 | 0.259 | 0.995 | 0.935 | 0.876 | 0.693 | 0.376 | 1.05 | 1.02 | 0.905 | 0.625 | 0.335
20 | NCI-H1944 | 0.834 | 1.05 | 0.793 | 1.11 | 0.432 | 0.485 | 0.494 | 0.457 | 0.835 | 0.831 | 0.871 | 0.843 | 0.799 | 0.654 | 0.808 | 0.946 | 0.786 | 0.624
21 | NCI-H1975 | 0.725 | 0.894 | 0.611 | 0.964 | 0.35 | 0.408 | 0.412 | 0.276 | 1.02 | 0.946 | 1.1 | 0.846 | 0.987 | 0.711 | 0.712 | 0.718 | 0.642 | 0.676
22 | NCI-H1993 | 0.706 | 0.669 | 0.647 | 0.671 | 0.634 | 0.7 | 0.603 | 0.613 | 0.879 | 0.854 | 0.768 | 0.865 | 0.925 | 0.678 | 0.734 | 0.742 | 0.693 | 0.64
23 | NCI-H2009 | 1.12 | 1.15 | 1.17 | 1.18 | 0.4 | 0.355 | 0.412 | 0.363 | 1.12 | 0.739 | 0.973 | 0.911 | 1.01 | 1.15 | 1.17 | 1.21 | 1.11 | 1.24
24 | NCI-H2023 | 0.562 | 0.538 | 0.567 | 0.609 | 0.217 | 0.2 | 0.243 | 0.204 | 0.894 | 0.67 | 0.86 | 0.773 | 0.868 | 0.544 | 0.608 | 0.531 | 0.624 | 0.596
25 | NCI-H2085 | 1 | 0.987 | 0.928 | 1.01 | 0.527 | 0.644 | 0.608 | 0.545 | 0.75 | 0.751 | 0.75 | 0.779 | 0.778 | 1.01 | 0.927 | 0.994 | 1.1 | 0.953
26 | NCI-H2087 | 1.08 | 1.01 | 1.13 | 1.19 | 0.336 | 0.299 | 0.255 | 0.28 | 1.07 | 0.992 | 0.902 | 1.09 | 0.983 | 1.26 | 1.05 | 1.15 | 1.12 | 1.11
27 | NCI-H2126 | 0.785 | 0.766 | 0.695 | 0.762 | 0.53 | 0.577 | 0.581 | 0.59 | 0.82 | 0.771 | 0.793 | 0.771 | 0.797 | 0.703 | 0.753 | 0.799 | 0.744 | 0.752
28 | NCI-H2170 | 0.764 | 0.809 | 0.867 | 0.969 | 0.489 | 0.474 | 0.478 | 0.504 | – | 0.28 | 0.295 | 0.264 | 0.247 | – | 0.796 | 0.849 | 0.607 | 0.4
29 | NCI-H2347 | 0.901 | 1.05 | 0.975 | 0.991 | 0.701 | 0.624 | 0.668 | 0.469 | 1.18 | 1.01 | 0.93 | 0.781 | 0.908 | 1.06 | 1.1 | 1.21 | 1.02 | 0.989
30 | NCI-H2405 | 0.913 | 1.07 | – | 0.933 | 0.772 | 0.861 | 0.687 | 0.721 | 1.12 | 1.08 | 1.21 | 0.921 | 1.05 | 0.405 | 0.819 | 0.891 | 0.734 | 0.738
